{"source": "patent US9144238B2", "about": "“Active compound combinations” (BAYER INTELLECTUAL PROPERTY GMBH, priority 2011, dated 2015)", "type_in_all_cases": "in vivo", "key": {"Phytophthora infestans": {"tested_on": "Phytophthora infestans", "experiment": "whole plant or invertebrate", "settings": "tomatoes; for pest or weed control at 1 ppm / pest or weed control at 2 ppm: read-out: Efficacy in % found, Table 4; for pest or weed control at 2 ppm: 2 ppm a.i.; for pest or weed control at 10 ppm: read-out: Efficacy in % found, Table 1"}, "Alternaria solani": {"tested_on": "Alternaria solani", "experiment": "whole plant or invertebrate", "settings": "for Efficacy in % found: in vivo"}, "Venturia inaequalis": {"tested_on": "Venturia inaequalis", "experiment": "Venturia test (apples)/preventive", "settings": "for pest or weed control at 4 ppm: Table 10, 4 ppm a.i.", "description": "To produce a suitable preparation of active compound, 1 part by weight of active compound is mixed with the stated amounts of solvent and emulsifier, and the concentrate is diluted with water to the desired concentration.\nTo test for preventive activity, young plants are sprayed with the preparation of active compound at the stated rate of application. After the spray coating has dried on, the plants are inoculated with an aqueous conidia suspension of the causal agent of apple scab (Venturia inaequalis) and then remain for 1 day in an incubation cabinet at approximately 20° C. and a relative atmospheric humidity of 100%.\nThe plants are then placed in a greenhouse at approximately 21° C. and a relative atmospheric humidity of approximately 90%.\nThe test is evaluated 10 days after the inoculation. 0% means an efficacy which corresponds to that of the untreated control, while an efficacy of 100% means that no disease is observed."}, "[1]": {"settings": "Venturia inaequalis, 240 h, read-out: Efficacy in % found"}, "[2]": {"settings": "Alternaria solani, 72 h, read-out: Efficacy in % found"}, "[3]": {"settings": "Phytophthora infestans, 72 h, 1 ppm a.i."}, "[4]": {"settings": "Phytophthora infestans, 72 h, 10 ppm a.i."}}, "note": "Values joined by “and” are separate entries in the source; they are usually repeats but may differ in a detail not shown here. Equal values may be shown once."}
{"compound": "C[C@@]1(c2ccc(Oc3ccccc3)cc2)OC(=O)N(Nc2ccccc2)C1=O", "note": "(racemic) [3.9, famoxadone]", "values": [{"measurement": "pest or weed control at 2.5 ppm", "setting": "Phytophthora infestans; Phytophthora infestans, 72 h, read-out: Efficacy in % found, Table 5, 2.5 ppm a.i.", "result": 30, "unit": "%"}]}
{"compound": "Cn1cc(C(=O)Nc2ccc(F)cc2-c2ccc(Cl)c(Cl)c2)c(C(F)F)n1", "note": "[2.1, bixafen]", "values": [{"measurement": "Efficacy in % found", "setting": "Alternaria solani", "result": 60, "unit": "%"}, {"measurement": "Efficacy in % found", "setting": "Venturia inaequalis; Table 10, 0.5 ppm a.i.", "result": 26, "unit": "%"}]}
{"compound": "O=C(NCCc1ncc(C(F)(F)F)cc1Cl)c1ccccc1C(F)(F)F", "note": "[2.6, fluopyram]", "values": [{"measurement": "pest or weed control at 4 ppm", "setting": "Venturia inaequalis; [1]", "result": 33, "unit": "%"}]}
{"compound": "Cn1cc(C(=O)Nc2ccccc2-c2cc(F)c(F)c(F)c2)c(C(F)F)n1", "note": "[2.8, fluxapyroxad]", "values": [{"measurement": "Efficacy in % found", "setting": "Alternaria solani", "result": 63, "unit": "%"}, {"measurement": "Efficacy in % found", "setting": "Venturia inaequalis; Table 10, 0.5 ppm a.i.", "result": 54, "unit": "%"}]}
{"compound": "CC(C)C1C2CCC1c1c(NC(=O)c3cn(C)nc3C(F)F)cccc12", "note": "(centres unmarked) [2.12, isopyrazam]", "values": [{"measurement": "Efficacy in % found", "setting": "Alternaria solani", "result": 60, "unit": "%"}, {"measurement": "Efficacy in % found", "setting": "Venturia inaequalis; Table 10, 0.5 ppm a.i.", "result": 76, "unit": "%"}]}
{"compound": "COC(c1ccc(Cl)cc1Cl)C(C)NC(=O)c1cn(C)nc1C(F)F", "note": "(centres unmarked) [2.27, N-[1-(2,4-dichlorophenyl)-1-methoxypropan-2-yl]-3-(difluoromethyl)-1-methyl-1H-pyrazole-4-carboxamide]", "values": [{"measurement": "pest or weed control at 4 ppm", "setting": "Venturia inaequalis; [1]", "result": 87, "unit": "%"}]}
{"compound": "Cn1cc(C(=O)Nc2cccc3c2C2CCC3C2=C(Cl)Cl)c(C(F)F)n1", "note": "(centres unmarked) [2.29, N-[9-(dichloromethylene)-1,2,3,4-tetrahydro-1,4-methanonaphthalen-5-yl]-3-(difluoromethyl)-1-methyl-1H-pyrazole-4-carboxamide]", "values": [{"measurement": "pest or weed control at 0.25 ppm", "setting": "Alternaria solani; [2]", "result": 40, "unit": "%"}]}
{"compound": "CCCCCCCCc1c(CC)nc2ncnn2c1N", "note": "[3.1, ametoctradin]", "values": [{"measurement": "Efficacy in % found", "setting": "Phytophthora infestans; Table 1, 10 ppm a.i.", "result": 0, "unit": "%"}, {"measurement": "Efficacy in % found", "setting": "Phytophthora infestans; Table 5, 2.5 ppm a.i.", "result": 52, "unit": "%"}]}
{"compound": "CO/C=C(/C(=O)OC)c1ccccc1Oc1cc(Oc2ccccc2C#N)ncn1", "note": "[3.3, azoxystrobin]", "values": [{"measurement": "Efficacy in % found", "setting": "Phytophthora infestans; Table 4, 1 ppm a.i.", "result": 0, "unit": "%"}, {"measurement": "Efficacy in % found", "setting": "Alternaria solani", "result": 9, "unit": "%"}]}
{"compound": "Cc1ccc(-c2c(Cl)nc(C#N)n2S(=O)(=O)N(C)C)cc1", "note": "[3.4, cyazofamid]", "values": [{"measurement": "pest or weed control at 0.1 ppm", "setting": "Phytophthora infestans; Phytophthora infestans, 72 h, read-out: Efficacy in % found, Table 5, 0.1 ppm a.i.", "result": 0, "unit": "%"}]}
{"compound": "CSC1=N[C@@](C)(c2ccccc2)C(=O)N1Nc1ccccc1", "note": "[3.10, fenamidone]", "values": [{"measurement": "pest or weed control at 0.25 ppm", "setting": "Phytophthora infestans; Phytophthora infestans, 72 h, read-out: Efficacy in % found, Table 2, 0.25 ppm a.i.", "result": 6, "unit": "%"}]}
{"compound": "CO/N=C(/C1=NOCCO1)c1ccccc1Oc1ncnc(Oc2ccccc2Cl)c1F", "note": "[3.12, fluoxastrobin]", "values": [{"measurement": "pest or weed control at 1 ppm", "setting": "Phytophthora infestans; [3]", "result": 0, "unit": "%"}, {"measurement": "pest or weed control at 2 ppm", "setting": "Phytophthora infestans; Phytophthora infestans, 72 h", "result": 0, "unit": "%"}, {"measurement": "pest or weed control at 0.5 ppm", "setting": "Alternaria solani; [2]", "result": 18, "unit": "%"}]}
{"compound": "COC(=O)N(OC)c1ccccc1COc1ccn(-c2ccc(Cl)cc2)n1", "note": "[3.17, pyraclostrobin]", "values": [{"measurement": "pest or weed control at 1 ppm", "setting": "Phytophthora infestans; [3]", "result": 0, "unit": "%"}, {"measurement": "pest or weed control at 2 ppm", "setting": "Phytophthora infestans; Phytophthora infestans, 72 h", "result": 0, "unit": "%"}, {"measurement": "pest or weed control at 0.25 ppm", "setting": "Alternaria solani; [2]", "result": 18, "unit": "%"}]}
{"compound": "CON=C(C(=O)OC)c1ccccc1CON=C(C)c1cccc(C(F)(F)F)c1", "note": "[3.22, trifloxystrobin]", "values": [{"measurement": "pest or weed control at 1 ppm", "setting": "Phytophthora infestans; [3]", "result": 0, "unit": "%"}, {"measurement": "pest or weed control at 2 ppm", "setting": "Phytophthora infestans; Phytophthora infestans, 72 h", "result": 0, "unit": "%"}, {"measurement": "pest or weed control at 0.25 ppm", "setting": "Alternaria solani; [2]", "result": 18, "unit": "%"}, {"measurement": "pest or weed control at 0.25 ppm", "setting": "Venturia inaequalis; Venturia inaequalis, 240 h, Table 11, 0.25 ppm a.i., read-out: Efficacy in % found", "result": 0, "unit": "%"}]}
{"compound": "O=C(NCc1ncc(C(F)(F)F)cc1Cl)c1c(Cl)cccc1Cl", "note": "[4.6, fluopicolide]", "values": [{"measurement": "Efficacy in % found", "setting": "Phytophthora infestans; Table 5, 0.5 ppm a.i.", "result": 12, "unit": "%"}]}
{"compound": "[Cu+2].[OH-].[OH-]", "note": "[5.5, copper hydroxide]", "values": [{"measurement": "Efficacy in % found", "setting": "Alternaria solani", "result": 16, "unit": "%"}]}
{"compound": "[Cl-].[Cu+2].[Cu+2].[OH-].[OH-].[OH-]", "note": "[5.8, copper oxychloride]", "values": [{"measurement": "Efficacy in % found", "setting": "Phytophthora infestans; Table 2, 5 ppm a.i.", "result": 12, "unit": "%"}, {"measurement": "Efficacy in % found", "setting": "Phytophthora infestans; Table 2, 10 ppm a.i.", "result": 10, "unit": "%"}, {"measurement": "Efficacy in % found", "setting": "Alternaria solani", "result": 7, "unit": "%"}, {"measurement": "Efficacy in % found", "setting": "Venturia inaequalis; Table 11, 50 ppm a.i.", "result": 54, "unit": "%"}]}
{"compound": "C#CCOc1ccc(CCNC(=O)C(OCC#C)c2ccc(Cl)cc2)cc1OC", "note": "(centres unmarked) [9.5, mandipropamid]", "values": [{"measurement": "Efficacy in % found", "setting": "Phytophthora infestans; Table 1, 0.2 ppm a.i.", "result": 0, "unit": "%"}]}
{"compound": "O=[N+]([O-])c1cc(C(F)(F)F)c(Cl)c([N+](=O)[O-])c1Nc1ncc(C(F)(F)F)cc1Cl", "note": "[14.4, fluazinam]", "values": [{"measurement": "pest or weed control at 10 ppm", "setting": "Phytophthora infestans; [4]", "result": 0, "unit": "%"}]}
{"compound": "CCNC(=O)NC(=O)/C(C#N)=N/OC", "note": "[15.9, cymoxanil]", "values": [{"measurement": "pest or weed control at 10 ppm", "setting": "Phytophthora infestans; [4]", "result": 0, "unit": "%"}]}
{"compound": "OP(O)O", "note": "[15.41, phosphorous acid]", "values": [{"measurement": "Efficacy in % found", "setting": "Phytophthora infestans; Table 1, 10 ppm a.i.", "result": 0, "unit": "%"}]}
{"compound": "fosetyl-aluminium [15.24]", "values": [{"measurement": "Efficacy in % found", "setting": "Phytophthora infestans; Table 1, 10 ppm a.i.", "result": 0, "unit": "%"}]}
{"compound": "metiram [5.25]", "values": [{"measurement": "Efficacy in % found", "setting": "Phytophthora infestans; Table 2, 5 ppm a.i.", "result": 12, "unit": "%"}, {"measurement": "Efficacy in % found", "setting": "Phytophthora infestans; Table 2, 10 ppm a.i.", "result": 24, "unit": "%"}, {"measurement": "Efficacy in % found", "setting": "Alternaria solani", "result": 36, "unit": "%"}]}
{"compound": "propamocarb hydrochloride [10.10]", "values": [{"measurement": "Efficacy in % found", "setting": "Phytophthora infestans; Table 2, 5 ppm a.i.", "result": 7, "unit": "%"}, {"measurement": "Efficacy in % found", "setting": "Phytophthora infestans; Table 4, 10 ppm a.i.", "result": 18, "unit": "%"}]}
{"compound": "propineb [5.29]", "values": [{"measurement": "Efficacy in % found", "setting": "Phytophthora infestans; Table 3, 10 ppm a.i.", "result": 24, "unit": "%"}, {"measurement": "Efficacy in % found", "setting": "Alternaria solani", "result": "2% and 0%"}]}
